Legend:
[1] = tested on: cisplatin-induced nausea and vomiting; assay: Study 1: open label, ascending dose Phase II study of intravenous amisulpride in the prevention of cisplatin-induced nausea and vomiting; assay type: in vivo, human
Procedure: This study was designed to find the optimum dose range of IV amisulpride for the kit and method of the invention. This was an open label, ascending dose, Phase II study to determine the minimum effective dose of intravenous amisulpride in the prevention of cisplatin-induced nausea and vomiting. The number of patients evaluated was 51. Doses of amisulpride (racemic mixture) administered were 2.5, 7.5 and 20 mg. A 20 mg dose of amisulpride was also administered with a standard dose of IV ondansetron.

cisplatin-induced emesis = settings: ferrets; higher dosages; cited from earlier work
[2] = tested on: chemotherapy-induced nausea and vomiting (cisplatin or cyclophosphamide with epirubicin or doxorubicin); assay: Study 2: randomised, double blind Phase II study of oral amisulpride for prevention of acute and delayed phase chemotherapy-induced nausea and vomiting; assay type: in vivo, human
Procedure: A randomised, double blind Phase II clinical study was conducted to characterise the dose-response of oral amisulpride for the prevention of acute and delayed phase nausea and vomiting in male and female patients. The patent population consisted of adult, chemotherapy-naïve cancer patients, receiving a first infusion of either cisplatin chemotherapy at a dose of 70 mg/m^2 or greater, or a combination of cyclophosphamide (500-1500 mg/m^2) and either epirubicin (60-100 mg/m^2) or doxorubicin (40-60 mg/m^2) for breast cancer. All patients received an intravenous injection of 20 mg of amisulpride (racemic mixture) and an intravenous injection of 8-16 mg ondansetron on the day of chemotherapy administration (i.e. day 1). The oral doses of amisulpride (racemic mixture) studied, along with placebo, were 10 mg, 20 mg or 40 mg each administered once per day on days 2-4 after chemotherapy. Specifically one capsule of amisulpride or its matching placebo, were taken as early as practically possible after waking of the patients each morning on days 2, 3 and 4. […] “Delayed phase response” means complete response (composite endpoint defined as no voting/retching and no use of rescue medication) in the period 24-120 hrs after chemo. There are other benefits of using a kit of the invention compared to three-drug regimen, such as reduced side-effects and better patient compliance.

[3] = oral 10 mg AMI days 2-4 after IV OND + 20 mg AMI day 1, all subjects
[4] = oral 10 mg AMI days 2-4 after IV OND + 20 mg AMI day 1, patients with acute phase CR
[5] = oral 20 mg AMI days 2-4 after IV OND + 20 mg AMI day 1, all subjects
[6] = oral 20 mg AMI days 2-4 after IV OND + 20 mg AMI day 1, patients with acute phase CR
[7] = oral 40 mg AMI days 2-4 after IV OND + 20 mg AMI day 1, all subjects
[8] = oral 40 mg AMI days 2-4 after IV OND + 20 mg AMI day 1, patients with acute phase CR

SMILES: CCN1CCCC1CNC(=O)c1cc(S(=O)(=O)CC)c(N)cc1OC (racemic) [amisulpride]
- No emesis (vomiting/retching) ([1]; 2.5 mg IV amisulpride): 0/5
- No significant nausea ([1]; 2.5 mg IV amisulpride): 1/5
- No emesis (vomiting/retching) ([1]; 7.5 mg IV amisulpride): 0/5
- No significant nausea ([1]; 7.5 mg IV amisulpride): 1/5
- No emesis (vomiting/retching) ([1]; 20 mg IV amisulpride): 3/18
- No significant nausea ([1]; 20 mg IV amisulpride): 12/18
- Protection from nausea, dose-relationship ([1]; IV amisulpride from 2.5 mg to 20 mg): positive dose-relationship
- inhibiting cisplatin-induced emesis, dose dependence in words (cisplatin-induced emesis): less effective at higher dosages
- Delayed phase response (complete response 24-120 hrs after chemo), in words ([2]; 10 mg oral amisulpride days 2-4, acute-phase responders): significantly better than placebo
- CR, 0-120 h [2, 3]: 36%
- CR, 0-120 h (number of subjects) [2, 3]: 21
- CR, 24-120 h [2, 3]: 46%
- CR, 24-120 h (number of subjects) [2, 3]: 27
- Nausea, 0-120 h [2, 3]: 68%
- Nausea, 0-120 h (number of subjects) [2, 3]: 40
- Nausea, 24-120 h [2, 3]: 63%
- Nausea, 24-120 h (number of subjects) [2, 3]: 37
- Rescue medication use, 0-120 h [2, 3]: 54%
- Rescue medication use, 0-120 h (number of subjects) [2, 3]: 32
- Rescue medication use, 24-120 h [2, 3]: 41%
- Rescue medication use, 24-120 h (number of subjects) [2, 3]: 26
- Vomiting, 0-120 h [2, 3]: 59%
- Vomiting, 0-120 h (number of subjects) [2, 3]: 35
- Vomiting, 24-120 h [2, 3]: 46%
- Vomiting, 24-120 h (number of subjects) [2, 3]: 27
- CR, 24-120 h ([2]; oral 10 mg AMI days 2-4 after IV OND + 20 mg AMI day 1, all subjects, listed as AMI): 46%
- CR, 24-120 h [2, 4]: 75%
- CR, 24-120 h (number of subjects) [2, 4]: 21
- Nausea, 24-120 h [2, 4]: 32%
- Nausea, 24-120 h (number of subjects) [2, 4]: 9
- Rescue medication use, 24-120 h [2, 4]: 14%
- Rescue medication use, 24-120 h (number of subjects) [2, 4]: 4
- Vomiting, 24-120 h [2, 4]: 21%
- Vomiting, 24-120 h (number of subjects) [2, 4]: 6
- CR, 0-120 h [2, 5]: 25%
- CR, 0-120 h (number of subjects) [2, 5]: 17
- CR, 24-120 h [2, 5]: 31%
- CR, 24-120 h (number of subjects) [2, 5]: 21
- Nausea, 0-120 h [2, 5]: 72%
- Nausea, 0-120 h (number of subjects) [2, 5]: 48
- Nausea, 24-120 h [2, 5]: 69%
- Nausea, 24-120 h (number of subjects) [2, 5]: 46
- Rescue medication use, 0-120 h [2, 5]: 55%
- Rescue medication use, 0-120 h (number of subjects) [2, 5]: 37
- Rescue medication use, 24-120 h [2, 5]: 54%
- Rescue medication use, 24-120 h (number of subjects) [2, 5]: 36
- Vomiting, 0-120 h [2, 5]: 70%
- Vomiting, 0-120 h (number of subjects) [2, 5]: 47
- Vomiting, 24-120 h [2, 5]: 55%
- Vomiting, 24-120 h (number of subjects) [2, 5]: 37
- CR, 24-120 h [2, 6]: 57%
- CR, 24-120 h (number of subjects) [2, 6]: 17
- Nausea, 24-120 h [2, 6]: 47%
- Nausea, 24-120 h (number of subjects) [2, 6]: 14
- Rescue medication use, 24-120 h [2, 6]: 23%
- Rescue medication use, 24-120 h (number of subjects) [2, 6]: 7
- Vomiting, 24-120 h [2, 6]: 43%
- Vomiting, 24-120 h (number of subjects) [2, 6]: 13
- CR, 0-120 h [2, 7]: 27%
- CR, 0-120 h (number of subjects) [2, 7]: 17
- CR, 24-120 h [2, 7]: 31%
- CR, 24-120 h (number of subjects) [2, 7]: 20
- Nausea, 0-120 h [2, 7]: 77%
- Nausea, 0-120 h (number of subjects) [2, 7]: 49
- Nausea, 24-120 h [2, 7]: 72%
- Nausea, 24-120 h (number of subjects) [2, 7]: 46
- Rescue medication use, 0-120 h [2, 7]: 58%
- Rescue medication use, 0-120 h (number of subjects) [2, 7]: 37
- Rescue medication use, 24-120 h [2, 7]: 56%
- Rescue medication use, 24-120 h (number of subjects) [2, 7]: 36
- Vomiting, 0-120 h [2, 7]: 66%
- Vomiting, 0-120 h (number of subjects) [2, 7]: 42
- Vomiting, 24-120 h [2, 7]: 58%
- Vomiting, 24-120 h (number of subjects) [2, 7]: 37
- CR, 24-120 h [2, 8]: 47%
- CR, 24-120 h (number of subjects) [2, 8]: 17
- Nausea, 24-120 h [2, 8]: 61%
- Nausea, 24-120 h (number of subjects) [2, 8]: 22
- Rescue medication use, 24-120 h [2, 8]: 36%
- Rescue medication use, 24-120 h (number of subjects) [2, 8]: 13
- Vomiting, 24-120 h [2, 8]: 47%
- Vomiting, 24-120 h (number of subjects) [2, 8]: 17

— US10322106B2, “Combinations of amisulpride and another anti-emetic for treating nausea and vomiting” (Acacia Pharma Limited, priority 2015, dated 2019)
